What was measured:
rat 11β-HSD2 = biological target: T1, rat 11β-HSD2 (Rattus norvegicus, UniProt P50233); assay: in vitro 11β-HSD2 activity using rat kidney microsomes; assay type: biochemical
T1 construct: kidney microsome fractions were obtained from male Wistar rats (7-week-old); from tissue; host or cells: rat kidney microsome fraction (male Wistar rats)
T1 sequence (P50233 1-400): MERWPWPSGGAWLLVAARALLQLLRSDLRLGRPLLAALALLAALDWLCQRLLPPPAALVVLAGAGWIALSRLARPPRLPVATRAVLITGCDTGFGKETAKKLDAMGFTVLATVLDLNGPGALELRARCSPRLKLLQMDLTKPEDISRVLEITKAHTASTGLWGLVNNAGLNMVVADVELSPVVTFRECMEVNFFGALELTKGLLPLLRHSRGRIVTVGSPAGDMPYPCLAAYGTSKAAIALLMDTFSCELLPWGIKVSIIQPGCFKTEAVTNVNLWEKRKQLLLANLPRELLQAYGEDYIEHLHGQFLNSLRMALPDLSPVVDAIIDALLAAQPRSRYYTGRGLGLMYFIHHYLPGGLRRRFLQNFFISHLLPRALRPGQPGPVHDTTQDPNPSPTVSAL
Experimental: Assays were conducted as described by Diederich et al.[23] with slight modifications as described in our previous study. Briefly, kidney microsome fractions were obtained from male Wistar rats (7-week-old). The microsome fraction (1.0 mg protein) was then incubated at 37 °C for 30 min in a reaction mixture containing 50 nM [1,2,6,7-^3H] cortisol, 1 mM NAD^+, and samples in […] 0.1 M phosphate buffer (pH 6.0). The reaction was terminated by adding 250 µl EtOH containing 1.25 mg cortisol and 1.25 mg cortisone. A 10 µl aliquot of the solution was spotted onto a silica gel 60 F254 plate and was developed with chloroform:MeOH (9:1). Spots corresponding to cortisone (Rf value, 0.43) were detected under UV light, scraped into a scintillation vial containing Clear-sol®, and the radioactivity was measured using a liquid scintillation counter (Hitachi Aloka Medical, Tokyo, Japan). The IC50 was calculated from the least square regression line made from 3 points that crossed 50% of the control logarithmic concentration values.

[1] = pharmacokinetics in EHBRs orally treated with GA (200 mg/kg), LC-MS/MS; assay type: in vivo, Eisai Hyperbilirubinemia rats (EHBRs)
Experimental: (§1) Female SD rats or EHBRs (9-week-old) were anesthetized by an intraperitoneal (i.p.) injection of urethane (1 g/kg) and their jugular veins were exposed. […] Aliquots (10 µl) of plasma or urine were mixed with 20 µl of subtilisin (0.91 U/ml), incubated at 37 °C for 30 min, followed by the addition of 70 µl of astragalloside IV solution (1 µg/ml in ethanol containing 0.5% formic acid), and kept at −20 °C for 30 min.

[2] = pharmacokinetics in SD rats orally treated with GA (200 mg/kg), LC-MS/MS; assay type: in vivo, Sprague Dawley (SD) rats; settings: female SD rats, GA 200 mg/kg oral, over 12 h
Experimental: as §1

[3] = concentrations in pooled plasma of EHBRs 12 h after oral GA (200 mg/kg); assay type: in vivo; settings: Eisai Hyperbilirubinemia rats (EHBR), rat
Experimental: Three female and three male EHBRs (9-week-old, respectively) were injected with urethane (1 g/kg, i.p.), and orally treated with an aqueous GA aqueous suspension (200 mg/kg in 1% CMC). Twelve h after the treatment, blood was collected from the abdominal vena cava, and the plasma samples of each sex rat were pooled.
LC-ESI(+)MS/MS analysis was conducted at the following conditions: column, Scherzo SM-C18 (3 μm, 3 mm i.d. ×100 mm, Imtakt, Kyoto, Japan); mobile phase, (A) 5 mM AcNH4, (B) 125 mM AcNH4/acetonitrole 1:4, at a flow rate of 0.3 ml/min, with the following gradient profile: A:B = 50:50–0:100 (0–3 min) and 0:100 (3–10 min); compound 1 (5.8 min), astragaloside IV (3.0 min), GA (8.7 min); the transitions monitored were the same as described in the previous section. Linear regressions over the concentration range 0.08–2 µM for compound 1 and 3.2 nM–2 µM for GA were examined using the peak-area ratio of the compounds to their internal standards and the least-squares method (r^2 > 0.98).

serum albumin = assay: binding assay with serum albumin (ultrafiltration of pooled plasma); assay type: in vitro ADME, rat; settings: pooled plasma of EHBRs, filtrate undetectable by LC-MS/MS
Experimental: In total 100 µl of pooled plasma samples from female EHBRs described above were ultra-centrifugated using Centricut W-20 (Molecular weight cut off 2 × 10^4, Kurabo Industries Ltd., Osaka, Japan) according to the manufacturer’s instruction, and the concentration of compound 1 in the filtrate was measured by using LC-MS/MS described in uptake study section.

Q: Which results are given for `CC1(C(=O)OC2OC(C(=O)O)C(O)C(O)C2O)CC(O)C2(C)CCC3(C)C(=CC(=O)C4C5(C)CCC(OS(=O)(=O)O)C(C)(C)C5CCC43C)C2C1` (stereo not drawn) [Compound 1, 22α-hydroxy-18β-glycyrrhetyl-3-O-sulfate-30-glucuronide]?
A: potency on 11β-HSD2, times lower than that of 3MGA and GA (rat 11β-HSD2; IC50 of compound 1 compared with 3MGA and GA): about 10 times; IC50 (rat 11β-HSD2; kidney microsomes of male Wistar rats, 37 °C, 30 min): 2000 nM; plasma concentration, times higher than that of 3MGA ([1]; EHBRs orally treated with GA): about 10 times; concentration at 12 h ([1]; Eisai Hyperbilirubinemia rats (EHBR), rat, plasma, female EHBRs, GA 200 mg/kg oral, 12 h, read-out: plasma concentration 12 h after GA treatment): 5.3 µM; urinary elimination in EHBRs ([1]; female EHBRs, GA 200 mg/kg oral, over 12 h): eliminated via urine; detection in plasma of SD rats [2]: not detected; urinary elimination in SD rats [2]: not detected; concentration at 12 h ([3]; female, read-out: concentration in pooled plasma, female EHBRs): 15 µM; concentration at 12 h ([3]; male, read-out: concentration in pooled plasma, male EHBRs): 79 µM; albumin-binding ratio in plasma (serum albumin): more than 99.9%

Source: paper PMC6197257 (Scientific Reports, 2018)
